Measured values from patent publication US20090275583A1, “ANTIVIRAL COMPOUNDS AND USE THEREOF” (Myriad Genetics, Incorporated, priority 2006, published 2009).
Like-named read-outs stand apart in the source and are kept apart here.

System: HIV-1NL4-3
Experiment: P4-MAGI assay
Format: cell-based
Source text: P4 cells were used to test the effects of compounds on virus fusion activity. P4 cells are HIV-1 infectable CD4^+ HeLa cells that bear the bacterial lacZ gene under the control of a minimal HIV-1 LTR. Charneau, et. al., J. Mol. Biol. 241:651-662 (1994). When these cells are infected with HIV-1, β-galactosidase is expressed due to Tat activation of the viral LTR. In this assay, P4 cells were infected with the laboratory adapted strain HIV-1NL4-3 at a multiplicity of infection of 1 in the presence of DEAE-Dextran. Immediately after addition of virus to the cells, increasing concentrations of compound were added to the cells. […] The effect on cell viability (TC50, concentration of compound that inhibits growth by 50%) was determined in mock-infected cells with the WST-1 Cell Proliferation Reagent (Roche Diagnostics).

[1] = Human immunodeficiency virus 1, 24 h, P4 cells, 24 hour incubation, β-galactosidase expression, read-out: P4-MAGI IC50
[2] = Human immunodeficiency virus 1, text statement, less than about 100 nm, read-out: P4-MAGI assay IC50

| Structure (SMILES) | IC50 [1] [nM] | further results |
| --- | --- | --- |
| C=C(C)[C@@H]1CC[C@]2(C(=O)NCCc3cccc(C(=O)NCc4ccc(OCCCN5CC(C)NC(C)C5)cc4)c3)CC[C@]3(C)C(CCC4[C@@]5(C)CC[C@H](O)C(C)(C)C5CC[C@]43C)C12 (stereo partly shown) [Example 233] | 70 |  |
| C=C(C)[C@@H]1CC[C@]2(C(=O)NCc3cccc(-c4nc5cc(C(=O)O)ccc5[nH]4)c3)CC[C@]3(C)C(CCC4[C@@]5(C)CC[C@H](O)C(C)(C)C5CC[C@]43C)C12 (stereo partly shown) [Example 126] | 66 | IC50 [2]: < 100 nM |
| C=C(C)[C@@H]1CC[C@]2(C(=O)NCCc3ccc(OCCCCC(=O)O)cc3)CC[C@]3(C)C(CCC4[C@@]5(C)CC[C@H](O)C(C)(C)C5CC[C@]43C)C12 (stereo partly shown) [Example 112] | 317 |  |
| C=C(C)[C@@H]1CC[C@]2(C(=O)NCCc3cccc(C(=O)NC(Cc4ccc(O)cc4)C(=O)O)c3)CC[C@]3(C)C(CCC4[C@@]5(C)CC[C@H](O)C(C)(C)C5CC[C@]43C)C12 (stereo partly shown) [Example 145] | 1100 |  |
| C=C(C)[C@@H]1CC[C@]2(C(=O)NCCc3cccc(C(=O)NCc4ncccc4C(=O)O)c3)CC[C@]3(C)C(CCC4[C@@]5(C)CC[C@H](O)C(C)(C)C5CC[C@]43C)C12 (stereo partly shown) [Example 228] | 135 |  |
| C=C(C)[C@@H]1CC[C@]2(C(=O)NCCc3cccc(C(=O)NCC(=O)NC)c3)CC[C@]3(C)C(CCC4[C@@]5(C)CC[C@H](O)C(C)(C)C5CC[C@]43C)C12 (stereo partly shown) [Example 71] | 2700 |  |
| C=C(C)[C@@H]1CC[C@]2(C(=O)NCc3cccc(C(=O)Nc4ccc(C(=O)O)cc4)c3)CC[C@]3(C)C(CCC4[C@@]5(C)CC[C@H](O)C(C)(C)C5CC[C@]43C)C12 (stereo partly shown) [Example 14] | 1800 |  |
| C=C(C)[C@@H]1CC[C@]2(C(=O)NCCc3cccc(C(=O)NCC4CCCN4)c3)CC[C@]3(C)C(CCC4[C@@]5(C)CC[C@H](O)C(C)(C)C5CC[C@]43C)C12 (stereo partly shown) [Example 204] | 1940 |  |
| C=C(C)[C@@H]1CC[C@]2(C(=O)NCc3cccc(-c4noc(Cc5ccc(-c6nnn[nH]6)cc5)n4)c3)CC[C@]3(C)C(CCC4[C@@]5(C)CC[C@H](O)C(C)(C)C5CC[C@]43C)C12 (stereo partly shown) [Example 277] | 10000 |  |
| C=C(C)[C@@H]1CC[C@]2(C(=O)NCc3cccc(C(=O)NCc4cccc(C(=O)O)c4C)c3C)CC[C@]3(C)C(CCC4[C@@]5(C)CC[C@H](O)C(C)(C)C5CC[C@]43C)C12 (stereo partly shown) [Example 81] | 6200 |  |
| C=C(C)[C@@H]1CC[C@]2(C(=O)NCc3cc(C(=O)NCCc4ccc(S(N)(=O)=O)cc4)ccc3F)CC[C@]3(C)C(CCC4[C@@]5(C)CC[C@H](O)C(C)(C)C5CC[C@]43C)C12 (stereo partly shown) [Example 259] | 175 |  |
| C=C(C)[C@@H]1CC[C@]2(C(=O)NCc3cccc(-c4nc(-c5cccc(C(=O)O)c5)no4)c3)CC[C@]3(C)C(CCC4[C@@]5(C)CC[C@H](O)C(C)(C)C5CC[C@]43C)C12 (stereo partly shown) [Example 127] | 768 |  |
| C=C(C)[C@@H]1CC[C@]2(C(=O)NCc3cccc(CNC(=O)c4ccc(C(=O)O)c(C(=O)O)c4)c3)CC[C@]3(C)C(CCC4[C@@]5(C)CC[C@H](O)C(C)(C)C5CC[C@]43C)C12 (stereo partly shown) [Example 78] | 7000 |  |
| C=C(C)[C@@H]1CC[C@]2(C(=O)NCc3cccc(C(=O)NCCc4cc(OC)cc(OC)c4)c3)CC[C@]3(C)C(CCC4[C@@]5(C)CC[C@H](O)C(C)(C)C5CC[C@]43C)C12 (stereo partly shown) [Example 44] | 52 | IC50 [2]: < 100 nM |
| C=C(C)[C@@H]1CC[C@]2(C(=O)NCc3cccc(C(=O)NCc4cccc(C(=O)O)n4)n3)CC[C@]3(C)C(CCC4[C@@]5(C)CC[C@H](O)C(C)(C)C5CC[C@]43C)C12 (stereo partly shown) [Example 91] | 3900 |  |
| C=C(C)[C@@H]1CC[C@]2(C(=O)NCCc3cccc(C(=O)NCC4CCCN4C(=O)OC(C)(C)C)c3)CC[C@]3(C)C(CCC4[C@@]5(C)CC[C@H](O)C(C)(C)C5CC[C@]43C)C12 (stereo partly shown) [Example 203] | 856 |  |
| C=C(C)[C@@H]1CC[C@]2(C(=O)NCc3cccc(COCc4cccc(C(=O)O)c4)c3)CC[C@]3(C)C(CCC4[C@@]5(C)CC[C@H](O)C(C)(C)C5CC[C@]43C)C12 (stereo partly shown) [Example 206] | 444 |  |
| C=C(C)[C@@H]1CC[C@]2(C(=O)NCc3cccc(-c4cccc(C(=O)NCC(=O)OCC)c4)c3)CC[C@]3(C)C(CCC4[C@@]5(C)CC[C@H](O)C(C)(C)C5CC[C@]43C)C12 (stereo partly shown) [Example 131] | 6500 |  |
| C=C(C)[C@@H]1CC[C@]2(C(=O)NCc3ccc(F)c(C(=O)NCCc4cccc(C(=O)OC)c4)c3)CC[C@]3(C)C(CCC4[C@@]5(C)CC[C@H](O)C(C)(C)C5CC[C@]43C)C12 (stereo partly shown) [Example 106] | 1300 |  |
| C=C(C)[C@@H]1CC[C@]2(C(=O)NCCc3ccccc3C(=O)NCCCCCCC(=O)O)CC[C@]3(C)C(CCC4[C@@]5(C)CC[C@H](O)C(C)(C)C5CC[C@]43C)C12 (stereo partly shown) [Example 55] | 4700 |  |
| C=C(C)[C@@H]1CC[C@]2(C(=O)NCc3ccc(F)c(C(=O)NCc4cccc(C(=O)OC)c4)c3)CC[C@]3(C)C(CCC4[C@@]5(C)CC[C@H](O)C(C)(C)C5CC[C@]43C)C12 (stereo partly shown) [Example 110] | 856 |  |

| Structure (SMILES) | IC50 [1] [nM] | further results |
| --- | --- | --- |
| C=C(C)[C@@H]1CC[C@]2(C(=O)NCc3cccc(C(=O)NCc4ccc(OCCC(=O)O)c(C(=O)O)c4)c3)CC[C@]3(C)C(CCC4[C@@]5(C)CC[C@H](O)C(C)(C)C5CC[C@]43C)C12 (stereo partly shown) [Example 119] | 1100 |  |
| C=C(C)[C@@H]1CC[C@]2(C(=O)NCCc3cccc(C(=O)N4CCC(c5ccccc5)CC4)c3)CC[C@]3(C)C(CCC4[C@@]5(C)CC[C@H](O)C(C)(C)C5CC[C@]43C)C12 (stereo partly shown) [Example 205] | 1000 |  |
| C=C(C)[C@@H]1CC[C@]2(C(=O)NCc3cccc(N4CCN(Cc5cccc(C(=O)O)c5)CC4)c3)CC[C@]3(C)C(CCC4[C@@]5(C)CC[C@H](O)C(C)(C)C5CC[C@]43C)C12 (stereo partly shown) [Example 118] | 458 |  |
| C=C(C)[C@@H]1CC[C@]2(C(=O)NCc3ccc(F)c(C(=O)NCCc4ccc(C(=O)OC)cc4)c3)CC[C@]3(C)C(CCC4[C@@]5(C)CC[C@H](O)C(C)(C)C5CC[C@]43C)C12 (stereo partly shown) [Example 104] | 350 |  |
| C=C(C)[C@@H]1CC[C@]2(C(=O)N[C@@H](Cc3ccc(OCCN4CCOC4=O)cc3)C(=O)O)CC[C@]3(C)C(CCC4[C@@]5(C)CC[C@H](O)C(C)(C)C5CC[C@]43C)C12 (stereo partly shown) [Example 116] | 177 |  |
| C=C(C)[C@@H]1CC[C@]2(C(=O)NCc3cc(C(=O)NCc4cccc(C(=O)OC)c4F)ccc3F)CC[C@]3(C)C(CCC4[C@@]5(C)CC[C@H](O)C(C)(C)C5CC[C@]43C)C12 (stereo partly shown) [Example 182] | 600 |  |
| C=C(C)[C@@H]1CC[C@]2(C(=O)NCCc3cccc(C(=O)NC(Cc4ccc(O)cc4)C(=O)OC)c3)CC[C@]3(C)C(CCC4[C@@]5(C)CC[C@H](O)C(C)(C)C5CC[C@]43C)C12 (stereo partly shown) [Example 144] | 204 |  |
| C=C(C)[C@@H]1CC[C@]2(CC(=O)NCc3cccc(C(=O)NCc4cccc(C(=O)O)c4)c3)CC[C@]3(C)C(CCC4[C@@]5(C)CC[C@H](O)C(C)(C)C5CC[C@]43C)C12 (stereo partly shown) [Example 142] | 3400 |  |
| C=C(C)[C@@H]1CC[C@]2(C(=O)NCCc3ccccc3C(=O)NCCCCC(=O)O)CC[C@]3(C)C(CCC4[C@@]5(C)CC[C@H](O)C(C)(C)C5CC[C@]43C)C12 (stereo partly shown) [Example 54] | 3400 |  |
| C=C(C)[C@@H]1CC[C@]2(C(=O)NCCc3cccc(C(=O)NCC4(C(=O)O)CC4)c3)CC[C@]3(C)C(CCC4[C@@]5(C)CC[C@H](O)C(C)(C)C5CC[C@]43C)C12 (stereo partly shown) [Example 219] | 396 |  |
| C=C(C)[C@@H]1CC[C@]2(C(=O)NCCc3cccc(S(=O)(=O)NCc4cccc(C(=O)OC)c4)c3)CC[C@]3(C)C(CCC4[C@@]5(C)CC[C@H](O)C(C)(C)C5CC[C@]43C)C12 (stereo partly shown) [Example 248] | 208 |  |
| C=C(C)[C@@H]1CC[C@]2(C(=O)NCCc3cccc(C(=O)NCC(=O)O)c3)CC[C@]3(C)C(CCC4[C@@]5(C)CC[C@H](O)C(C)(C)C5CC[C@]43C)C12 (stereo partly shown) [Example 64] | 220 |  |
| C=C(C)[C@@H]1CC[C@]2(C(=O)NCCc3cccc(C(=O)NC4CCC(C(=O)OC)CC4)c3)CC[C@]3(C)C(CCC4[C@@]5(C)CC[C@H](O)C(C)(C)C5CC[C@]43C)C12 (stereo partly shown) [Example 207] | 193 |  |
| C=C(C)[C@@H]1CC[C@]2(C(=O)NCc3ccc(C(=O)OC)o3)CC[C@]3(C)C(CCC4[C@@]5(C)CC[C@H](O)C(C)(C)C5CC[C@]43C)C12 (stereo partly shown) [Example 87] | 1400 |  |
| C=C(C)[C@@H]1CC[C@]2(C(=O)NCc3cccc(C(=O)NCc4cc(C(=O)O)ccn4)c3)CC[C@]3(C)C(CCC4[C@@]5(C)CC[C@H](O)C(C)(C)C5CC[C@]43C)C12 (stereo partly shown) [Example 31] | 573 |  |
| C=C(C)[C@@H]1CC[C@]2(C(=O)NCc3ccc(C(=O)NCc4ccc(C(=O)O)o4)o3)CC[C@]3(C)C(CCC4[C@@]5(C)CC[C@H](O)C(C)(C)C5CC[C@]43C)C12 (stereo partly shown) [Example 90] | 6500 |  |
| C=C(C)[C@@H]1CC[C@]2(C(=O)Nc3cccc(C(=O)NCCc4cccc(C(=O)O)c4)c3)CC[C@]3(C)C(CCC4[C@@]5(C)CC[C@H](O)C(C)(C)C5CC[C@]43C)C12 (stereo partly shown) [Example 85] | 10000 |  |
| CC(O)(CO)[C@@H]1CC[C@]2(C(=O)NCc3cccc(C(=O)NCCCCC(=O)O)c3)CC[C@]3(C)C(CCC4[C@@]5(C)CC[C@H](O)C(C)(C)C5CC[C@]43C)C12 (single isomer, unassigned) [Example 140] |  | IC50 (P4 cells, 24 hour incubation, β-galactosidase expression, read-out: P4-MAGI IC50): 1600 nM |
| C=C(C)[C@@H]1CC[C@]2(C(=O)NCc3cccc(C(=O)NCc4cccc(Br)c4)c3)CC[C@]3(C)C(CCC4[C@@]5(C)CC[C@H](O)C(C)(C)C5CC[C@]43C)C12 (stereo partly shown) [Example 30] | 410 |  |
| C=C(C)[C@@H]1CC[C@]2(C(=O)NCc3cccc(C(=O)NCc4ccc(OCC(=O)O)c(C(=O)O)c4)c3)CC[C@]3(C)C(CCC4[C@@]5(C)CC[C@H](O)C(C)(C)C5CC[C@]43C)C12 (stereo partly shown) [Example 120] | 620 |  |
